The structures appear in SMILES notation. Numbered stars: 1 amine (or outer) side, 2 acyl side, 3 side chain; on linkers, the order of the positions; unused ones are H or OH. Peptide text beside a SMILES is read from it. * marks the point of attachment. C20 diacid = O=C(O)CCCCCCCCCCCCCCCCCCC(=O)*; γGlu = O=C(O)[C@H](CCC(=O)[*:2])N[*:1]; AEEA = NCCOCCOCC(=O)O

Series [1] has as its target T1, Amylin receptor AMY3; CALCR/RAMP3 (Homo sapiens, UniProt O60896+P30988).
T1 sequence (P30988 whole entry): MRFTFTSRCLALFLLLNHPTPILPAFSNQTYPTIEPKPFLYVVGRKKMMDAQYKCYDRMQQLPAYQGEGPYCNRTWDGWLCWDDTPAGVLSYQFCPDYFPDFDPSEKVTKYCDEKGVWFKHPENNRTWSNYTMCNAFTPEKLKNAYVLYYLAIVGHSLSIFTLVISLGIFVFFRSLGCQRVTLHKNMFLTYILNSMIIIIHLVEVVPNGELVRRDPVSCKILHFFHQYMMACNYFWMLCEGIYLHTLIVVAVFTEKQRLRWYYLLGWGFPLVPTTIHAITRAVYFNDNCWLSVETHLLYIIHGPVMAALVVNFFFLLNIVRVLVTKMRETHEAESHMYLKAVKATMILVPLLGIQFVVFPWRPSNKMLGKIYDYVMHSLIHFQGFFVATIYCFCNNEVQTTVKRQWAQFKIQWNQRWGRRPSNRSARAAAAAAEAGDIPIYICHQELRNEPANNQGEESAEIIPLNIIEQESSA
T1 sequence (O60896 whole entry): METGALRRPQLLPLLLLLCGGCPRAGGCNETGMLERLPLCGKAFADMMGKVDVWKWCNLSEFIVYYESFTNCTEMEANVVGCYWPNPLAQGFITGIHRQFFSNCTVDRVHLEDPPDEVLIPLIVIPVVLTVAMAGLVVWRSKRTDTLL
Kind of series: Agonist activity at human amylin receptor expressed in BHK570 cells co-expressing RAMP3 assessed as increase in intracellular cAMP concentration incubated for 3 hrs in absence of albumin by CRE luciferase reporter gene assay. The format is functional, cell-based.

For series [2], the target named is T2, Calcitonin receptor (Homo sapiens, UniProt P30988).
T2 sequence (P30988 whole entry): T1 sequence (P30988 whole entry)
Kind of series: Agonist activity at human calcitonin receptor expressed in BHK570 cells assessed as increase in intracellular cAMP concentration incubated for 3 hrs in absence of albumin by CRE luciferase reporter gene assay. The format is functional, cell-based.

Series [3] addresses T1, Amylin receptor AMY3; CALCR/RAMP3. Kind of series: Agonist activity at human amylin receptor expressed in BHK570 cells co-expressing RAMP3 assessed as increase in intracellular cAMP concentration incubated for 3 hrs in presence of 10% FBS by CRE luciferase reporter gene assay. Format: functional, cell-based. On the technique in general: Reporter assays use an easily measured gene product as a stand-in for the process of interest.

For series [4], the target named is T2, Calcitonin receptor. Put plainly: Agonist activity at human calcitonin receptor expressed in BHK570 cells assessed as increase in intracellular cAMP concentration incubated for 3 hrs in presence of 10% FBS by CRE luciferase reporter gene assay. Format: functional, cell-based.
A short description of series [5]: Stability in pH 7.5 buffer assessed as lag time for fibril formation at 1 uM by Thioflavin T based fluorescence assay. To be noted: pH 7.5, 1 µM. The format is physicochemical.
The nature of series [6]: Stability in pH 7.5 buffer assessed as compound recovery at 1 uM by Thioflavin T based fluorescence assay. Format: physicochemical. To be noted: read-out: Drug recovery.
Series [7] in a line: Solubility in 100 mM glycylglycine buffer at pH 3.0 incubated for 18 hrs by UPLC analysis. The format is physicochemical.
The nature of series [8]: Solubility in 100 mM glycylglycine buffer at pH 4.0 incubated for 18 hrs by UPLC analysis. Format: physicochemical.
Series [9] can be described thus: Solubility in 100 mM bistrispropane buffer at pH 6.0 incubated for 18 hrs by UPLC analysis. Format: physicochemical.
Series [10] can be described thus: Solubility in 100 mM glycylglycine buffer at pH 5.0 incubated for 18 hrs by UPLC analysis. The format is physicochemical.
Series [11] in a line: Solubility in 100 mM bistrispropane buffer at pH 6.5 incubated for 18 hrs by UPLC analysis. Format: physicochemical.
Series [12] in a line: Solubility in 100 mM bistrispropane buffer at pH 7.0 incubated for 18 hrs by UPLC analysis. Format: physicochemical.
A short description of series [13]: Solubility in 100 mM bistrispropane buffer at pH 7.5 incubated for 18 hrs by UPLC analysis. The format is physicochemical.
The nature of series [14]: Solubility in 100 mM bistrispropane buffer at pH 8.0 incubated for 18 hrs by UPLC analysis. The format is physicochemical.
The target of series [15] is T1, Amylin receptor AMY3; CALCR/RAMP3. Kind of series: Displacement of [125I]-labeled rat amylin from human amylin receptor expressed in BHK tkts13 whole cells co-expressing RAMP3 incubated for 60 mins by scintillation proximity assay. The format is cell-based. On the technique in general: In a radioligand displacement assay an active substance lowers the binding of a labelled ligand.

By EC50 is commonly meant the concentration at which the effect is half-maximal. Broadly, the solubility is the concentration that dissolves in the medium under given conditions. A high value points to a readily soluble substance. In the case of `CC(C)C[C@H](NC(=O)[C@H](C)NC(=O)[C@H](C)NC(=O)[C@@H](NC(=O)[C@H](CO)NC(=O)[C@H](CC(C)C)NC(=O)[C@H](CCC(=O)O)NC(=O)[C@H](CO)NC(=O)[C@H](C)NC(=O)COCCOCCNC(=O)COCCOCCNC(=O)COCCOCCNC(=O)COCCOCCNC(=O)COCCOCCNC(=O)CC[C@H](NC(=O)CCCCCCCCCCCCCCCCCCC(=O)O)C(=O)O)[C@@H](C)O)C(=O)NCC(=O)N[C@@H](CCCNC(=N)N)C(=O)N[C@@H](CC(C)C)C(=O)N[C@@H](CO)C(=O)N[C@@H](C)C(=O)N[C@@H](CCC(=O)O)C(=O)N[C@@H](CC(C)C)C(=O)N[C@@H](Cc1cnc[nH]1)C(=O)N[C@@H](CCC(=O)O)C(=O)N[C@@H](CC(C)C)C(=O)N[C@@H](C)C(=O)N[C@H](C(=O)N[C@@H](CC(C)C)C(=O)N1CCC[C@H]1C(=O)N[C@@H](CCCNC(=N)N)C(=O)N[C@H](C(=O)N[C@@H](CCC(=O)O)C(=O)N[C@H](C(=O)NCC(=O)N[C@@H](CO)C(=O)NCC(=O)N[C@@H](CO)C(=O)N1CCC[C@H]1C(N)=O)[C@@H](C)O)[C@@H](C)O)[C@@H](C)O` ({C20 diacid-γGlu-AEEA-AEEA-AEEA-AEEA-AEEA}-ASELSTAALGRLSAELHELATLPRTETGSGSP-NH2), the concentration giving a half-maximal response (EC50) in [1] was 0.015 nM; at Calcitonin receptor [2] it was 0.01 nM; in series [3] it was 0.066 nM; at Calcitonin receptor [4], 0.027 nM. Moreover, the Time in series [5] was over 45 h. Besides, the remaining at 1 µM in [6] came to 100%. The solubility at 18 h in series [7], in series [8], in [9], in [10], in series [11] and in series [12] was at least 200 µM throughout. The solubility at 18 h in [13] and in [14] was at least 200 µM each time.

In the case of `CC(C)C[C@H](NC(=O)[C@H](C)NC(=O)[C@H](C)NC(=O)[C@@H](NC(=O)[C@H](CO)NC(=O)[C@H](CC(C)C)NC(=O)[C@H](CCC(=O)O)NC(=O)[C@H](CO)NC(=O)[C@H](C)NC(=O)COCCOCCNC(=O)COCCOCCNC(=O)COCCOCCNC(=O)COCCOCCNC(=O)CC[C@H](NC(=O)CCCCCCCCCCCCCCCCCCC(=O)O)C(=O)O)[C@@H](C)O)C(=O)NCC(=O)N[C@@H](CCCNC(=N)N)C(=O)N[C@@H](CC(C)C)C(=O)N[C@@H](CO)C(=O)N[C@@H](C)C(=O)N[C@@H](CCC(=O)O)C(=O)N[C@@H](CC(C)C)C(=O)N[C@@H](Cc1cnc[nH]1)C(=O)N[C@@H](CCC(=O)O)C(=O)N[C@@H](CC(C)C)C(=O)N[C@@H](C)C(=O)N[C@H](C(=O)N[C@@H](CC(C)C)C(=O)N1CCC[C@H]1C(=O)N[C@@H](CCCNC(=N)N)C(=O)N[C@H](C(=O)N[C@@H](CCC(=O)O)C(=O)N[C@H](C(=O)NCC(=O)N[C@@H](CO)C(=O)NCC(=O)N[C@@H](CO)C(=O)N1CCC[C@H]1C(N)=O)[C@@H](C)O)[C@@H](C)O)[C@@H](C)O` ({C20 diacid-γGlu-AEEA-AEEA-AEEA-AEEA}-ASELSTAALGRLSAELHELATLPRTETGSGSP-NH2), the EC50 was 0.013 nM on Calcitonin receptor [2], 0.062 nM in series [3] and 0.025 nM at Calcitonin receptor [4]. Also, the Time in series [5] is over 45 h. Besides, the remaining at 1 µM in series [6] came to 100%. Besides, the solubility at 18 h in [7], in series [8], in series [9], in series [10], in series [11] and in series [12] was at least 200 µM in each case. Moreover, the solubility at 18 h in series [13] and in [14] was at least 200 µM throughout.

Broadly, the IC50 is the concentration that gives 50% inhibition. In the case of `CC(C)C[C@H](NC(=O)[C@H](C)NC(=O)[C@H](C)NC(=O)[C@@H](NC(=O)[C@H](CO)NC(=O)[C@H](CC(C)C)NC(=O)[C@H](CCC(=O)O)NC(=O)[C@H](CO)NC(=O)[C@H](C)NC(=O)CC[C@H](NC(=O)CCCCCCCCCCCCCCCCCCC(=O)O)C(=O)O)[C@@H](C)O)C(=O)NCC(=O)N[C@@H](CCCNC(=N)N)C(=O)N[C@@H](CC(C)C)C(=O)N[C@@H](CO)C(=O)N[C@@H](C)C(=O)N[C@@H](CCC(=O)O)C(=O)N[C@@H](CC(C)C)C(=O)N[C@@H](Cc1cnc[nH]1)C(=O)N[C@@H](CCC(=O)O)C(=O)N[C@@H](CC(C)C)C(=O)N[C@@H](C)C(=O)N[C@H](C(=O)N[C@@H](CC(C)C)C(=O)N1CCC[C@H]1C(=O)N[C@@H](CCCNC(=N)N)C(=O)N[C@H](C(=O)N[C@@H](CCC(=O)O)C(=O)N[C@H](C(=O)NCC(=O)N[C@@H](CO)C(=O)NCC(=O)N[C@@H](CO)C(=O)N[C@@H](CO)C(N)=O)[C@@H](C)O)[C@@H](C)O)[C@@H](C)O` ({C20 diacid-γGlu}-ASELSTAALGRLSAELHELATLPRTETGSGSS-NH2), the EC50 in [1] is 0.063 nM; on Calcitonin receptor [2] it was 0.038 nM; at Calcitonin receptor [4] it was 0.154 nM. Also, in series [5], the Time was over 45 h. Further, the remaining at 1 µM in series [6] was 100%. Moreover, the solubility at 18 h in [7], in series [8], in series [9], in series [10], in series [11] and in series [12] was at least 200 µM throughout. In addition, the solubility at 18 h in series [13] and in [14] was at least 200 µM throughout. The half-maximal inhibitory concentration (IC50) in series [15] was 4.07 nM.

Take `CC(C)C[C@H](NC(=O)[C@H](CCCNC(=N)N)NC(=O)CNC(=O)[C@H](CC(C)C)NC(=O)[C@@H](NC(=O)[C@H](C)NC(=O)[C@@H](NC(=O)[C@H](CO)NC(=O)[C@H](CC(C)C)NC(=O)[C@H](CCC(N)=O)NC(=O)[C@H](CO)NC(=O)[C@H](C)NC(=O)CC[C@H](NC(=O)CCCCCCCCCCCCCCCCCCC(=O)O)C(=O)O)[C@@H](C)O)C(C)C)C(=O)N[C@@H](CO)C(=O)N[C@@H](CCC(N)=O)C(=O)N[C@@H](CCC(=O)O)C(=O)N[C@@H](CC(C)C)C(=O)N[C@@H](Cc1cnc[nH]1)C(=O)N[C@@H](CCC(=O)O)C(=O)N[C@@H](CC(C)C)C(=O)N[C@@H](CCC(N)=O)C(=O)N[C@H](C(=O)N[C@@H](Cc1ccc(O)cc1)C(=O)N1CCC[C@H]1C(=O)N[C@@H](CCCNC(=N)N)C(=O)N[C@H](C(=O)N[C@@H](CCC(=O)O)C(=O)N[C@H](C(=O)NCC(=O)N[C@@H](CO)C(=O)N[C@@H](CCC(N)=O)C(=O)N[C@H](C(=O)N[C@@H](Cc1ccc(O)cc1)C(N)=O)[C@@H](C)O)[C@@H](C)O)[C@@H](C)O)[C@@H](C)O` ({C20 diacid-γGlu}-ASQLSTAVLGRLSQELHELQTYPRTETGSQTY-NH2): the EC50 in [1] is 0.062 nM; in series [3], 0.067 nM; at Calcitonin receptor [4], 0.036 nM. Also, the Time in [5] amounted to 1 h. In series [6], the remaining at 1 µM was 16%. Further, the solubility at 18 h in series [7], in [8], in series [9], in series [11], in series [12] and in [13] was at least 200 µM throughout. Moreover, in series [14], the solubility at 18 h was at least 200 µM.

(Values after ChEMBL document CHEMBL4420076, “Amylin and calcitonin receptor agonist” (2017).)
